The subject of this assay is NCI-60 cell lines. The assay is classed as cell-based, human.

“Also recorded” adds a separate entry of the source.

Regarding VGSVGLG, the “Cell Line with which the peptide (and its tripeptide motif) is associated” value (shortened to “Cell Line with which the peptide”) is “Hop-62-Lung”.

As to LAGSTRR, the “Cell Line with which the peptide” value is on record as “SR Leukemia”. For VLASLSG, the “Cell Line (NCI-60 cell line the peptide and its motif are associated with)” value was “IGROV1 Ovarian”.

Consider CGEGLVV, for which the “Cell Line (NCI-60 cell line the peptide and its motif are associated with)” value is on record as “DU-145 Prostate”. Still for that read-out and setting: to GPSVLDI belongs “OVCAR-8 Ovarian”. On to SRSCGGL, for which the “Cell Line (NCI-60 cell line the peptide is associated with)” value is on record as “LOX-IMVI Melanoma”. Still for that read-out and setting: to LRARGGH belongs “HT-29 Colon”. With LRSGAGS, the “Cell Line with which the peptide” value is “Molt-4-Leukemia”.

Take GRAVWMV: the “Cell Line (NCI-60 cell line the peptide is associated with)” value was “KM-12C Colon”. Still for that read-out and setting: for KGRVSAG the value was “SNB-19 CNS; also recorded: SF-539 CNS”; for FSGLVVA, “HT-29 Colon”. Turning to GLWAAVL, the “Cell Line the peptide is associated with (peptide recovered from phage library selection on this NCI-60 cell line)” value was “TK-10 Renal”.

As to WGLVRHA, the “Cell Line (NCI-60 cell line the peptide is associated with)” value is “SF-268 CNS”. RGSWAGV: the “Cell Line (NCI-60 cell line the peptide is associated with)” value was “HT-29 Colon”.

Take FDARGGL: the “Cell Line with which the peptide” value is “CCRF-CEM Leukemia”.

On to WSISGSV, for which the “Cell Line the peptide is associated with (peptide recovered from phage library selection on this NCI-60 cell line)” value was “MDA-MB-231 Breast”.

On to AVSKRLP, for which the “Cell Line with which the peptide” value was “H522-Lung”. On the same count and under the same terms, for RLRAASY the value was “RPMI-8226-Leukemia”. Turning to LRVPGGP, the “Cell Line (NCI-60 cell line the peptide is associated with)” value is reported as “KM-12C Colon”.

For SQFGPSF, the “Cell Line (NCI-60 cell line the peptide and its motif are associated with)” value is “SK-OV-3-3 Ovarian”.

As to SAAGRTF, the “Cell Line (NCI-60 cell line the peptide and its motif are associated with)” value is reported as “SK-MEL-2 Melanoma”. For VAVGVRS, the “Cell Line the peptide is associated with (peptide recovered from phage library selection on this NCI-60 cell line)” value is on record as “HS 578 T Breast”. For the substance LVRASNG, the “Cell Line (NCI-60 cell line the peptide and its motif are associated with)” value is given as “SK-MEL-28 Melanoma”.

As for GRGVGTD, the “Cell Line (NCI-60 cell line the peptide is associated with)” value is listed as “HT-29 Colon”. DEGGSRW: the “Cell Line (NCI-60 cell line the peptide and its motif are associated with)” value is listed as “IGROV1 Ovarian”. Turning to TLGGLRT, the “Cell Line (NCI-60 cell line the peptide is associated with)” value was “SF-295 CNS”. Turning to AVHSGRL, the “Cell Line the peptide is associated with (peptide recovered from phage library selection on this NCI-60 cell line)” value is “ACHN Renal”.

LMLVSGK: the “Cell Line the peptide is associated with (peptide recovered from phage library selection on this NCI-60 cell line)” value is “NCI/ADR-RES Breast”. In the case of SARLSHV, the “Cell Line (NCI-60 cell line the peptide and its motif are associated with)” value is given as “UACC 257 Melanoma”. Take GFASLLR: the “Cell Line (NCI-60 cell line the peptide is associated with)” value was “HCT-15 Colon”. Take LGLSGLG: the “Cell Line the peptide is associated with (peptide recovered from phage library selection on this NCI-60 cell line)” value is “NCI/ADR-RES Breast”. With GVRGAAR, the “Cell Line (NCI-60 cell line the peptide is associated with)” value is given as “HCT-15 Colon”. As to WGRLEST, the “Cell Line the peptide is associated with (peptide recovered from phage library selection on this NCI-60 cell line)” value is given as “BT-549 Breast”. On to FGGSGVL, for which the “Cell Line with which the peptide” value was “H460-Lung”. GSARGML: the “Cell Line with which the peptide” value was “SR Leukemia”. For the substance GRIRLSF, the “Cell Line the peptide is associated with (peptide recovered from phage library selection on this NCI-60 cell line)” value is given as “RXF393 Renal”. Take VGSVKAS: the “Cell Line (NCI-60 cell line the peptide and its motif are associated with)” value is listed as “PC3 Prostate”.

LGLVFTR: the “Cell Line the peptide is associated with (peptide recovered from phage library selection on this NCI-60 cell line)” value is reported as “T-47D Breast”. The same measure, in the same setting: to SGGSVGF belongs “MDA-MB-231 Breast”. RAVEMGT: the “Cell Line with which the peptide” value is “H460-Lung”. As for SGLVAMV, the “Cell Line (NCI-60 cell line the peptide is associated with)” value is on record as “SW620-Colon”. With VDGSGDD, the “Cell Line (NCI-60 cell line the peptide and its motif are associated with)” value was “DU-145 Prostate”. Still for that read-out and setting: for RAVGRQL the value was “OVCAR-5 Ovarian”. On to PWGAGVR, for which the “Cell Line the peptide is associated with (peptide recovered from phage library selection on this NCI-60 cell line)” value is given as “BT-549 Breast”. As to VRASSKR, the “Cell Line (NCI-60 cell line the peptide and its motif are associated with)” value is “OVCAR-5 Ovarian”.

Values taken from patent US7781565B2 (priority 2006, dated 2010).
